The values that follow come from US7834030B2, “Phenyl-[1,2,4]-oxadiazol-5-one derivatives, pharmaceutical compositions and therapeutic use thereof” (Sanofi-Aventis, priority 2005, dated 2010).

The term EC50 denotes the concentration giving half of the maximal effect. Read a high EC50 as weaker potency.

In this assay the target is T1, human PPARalpha (Homo sapiens, UniProt Q07869).
T1 construct: human PPARalpha receptor (amino acids S167-Y468); expressed in transfected cells; plasmid pcDNA3
T1 sequence (Q07869 167-468): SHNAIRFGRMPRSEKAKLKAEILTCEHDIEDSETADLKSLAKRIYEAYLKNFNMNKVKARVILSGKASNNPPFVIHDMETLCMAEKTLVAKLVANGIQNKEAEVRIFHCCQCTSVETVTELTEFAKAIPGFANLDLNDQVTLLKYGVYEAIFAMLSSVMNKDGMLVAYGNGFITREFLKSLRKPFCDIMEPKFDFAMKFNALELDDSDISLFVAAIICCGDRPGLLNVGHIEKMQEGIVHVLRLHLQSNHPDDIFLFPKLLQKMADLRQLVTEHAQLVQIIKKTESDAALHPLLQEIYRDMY
Description: cellular PPARalpha assay (GAL4 luciferase reporter, stably transfected HEK cell line). The format is cell-based. The method, then: The activity of the compounds was tested through the determination of EC50 values of PPAR agonists in the cellular PPARalpha assay. The potency of substances which bind to human PPARalpha and activate it in an agonistic manner was analyzed using a stably transfected HEK cell line (HEK=human embryo kidney) which is referred to here as PPARalpha reporter cell line. It contains two genetic elements, a luciferase reporter element (pdeltaM-GAL4-Luc-Zeo) and a PPARalpha fusion protein (GR-GAL4-humanPPARalpha-LBD) which mediates expression of the luciferase reporter element depending on a PPARalpha ligand. The stably and constitutively expressed fusion protein GR-GAL4-humanPPARalpha-LBD binds in the cell nucleus of the PPARalpha reporter cell line via the GAL4 protein portion to the GAL4 DNA binding motifs 5′-upstream of the luciferase reporter element which is stably integrated in the genome of the cell line. There is only weak expression of the luciferase reporter gene in the absence of a PPARalpha ligand if fatty acid-depleted fetal calf serum (cs-FCS) is used in the assay. PPARalpha ligands bind and activate the PPARalpha fusion protein and thereby stimulate the expression of the luciferase reporter gene. The luciferase which is formed can be detected by means of chemiluminescence via an appropriate substrate.
The PPARalpha reporter cell line was prepared in two stages. Firstly, the luciferase reporter element was constructed and stably transfected into HEK cells. For this purpose, five binding sites of the yeast transcription factor GAL4 (Accession # AF264724) were cloned in 5′-upstream of a 68 bp-long minimal MMTV promoter (Accession # V01175). The minimal MMTV promoter section contains a CCAAT box and a TATA element in order to enable efficient transcription by RNA polymerase II. The cloning and sequencing of the GAL4-MMTV construct took place in analogy to the description of Sambrook J. et. al. (Molecular cloning, Cold Spring Harbor Laboratory Press, 1989). Then the complete Photinus pyralis gene (Accession # M15077) was cloned in 3′-downstream of the GAL4-MMTV element. After sequencing, the luciferase reporter element consisting of five GAL4 binding sites, MMTV promoter and luciferase gene was recloned into a plasmid which confers zeocin resistance in order to obtain the plasmid pdeltaM-GAL4-Luc-Zeo. This vector was transfected into HEK cells in accordance with the statements in Ausubel, F. M. et al. (Current protocols in molecular biology, Vol. 1-3, John Wiley & Sons, Inc., 1995).
In a second step, the PPARalpha fusion protein (GR-GAL4-humanPPARalpha-LBD was introduced into the stable cell clone described. For this purpose, initially the cDNA coding for the N-terminal 76 amino acids of the glucocorticoid receptor (Accession # P04150) was linked to the cDNA section coding for amino acids 1-147 of the yeast transcription factor GAL4 (Accession # P04386). The cDNA of the ligand-binding domain of the human PPARalpha receptor (amino acids S167-Y468; Accession # S74349) was cloned in at the 3′-end of this GR-GAL4 construct. The fusion construct prepared in this way (GR-GAL4-humanPPARalpha-LBD) was recloned into the plasmid pcDNA3 (Invitrogen) in order to enable constitutive expression therein by the cytomegalovirus promoter. This plasmid was linearized with a restriction endonuclease and stably transfected into the previously described cell clone containing the luciferase reporter element. The finished PPARalpha reporter cell line which contains a luciferase reporter element and constitutively expresses the PPARalpha fusion protein (GR-GAL4-human PPARalpha-LBD) was isolated by selection with zeocin (0.5 mg/ml) and G418 (0.5 mg/ml).
The activity of PPARalpha agonists was determined in a 3-day assay, which is described below: […]
With `CCC(Oc1ccc(-c2noc(=O)[nH]2)c(Cl)c1)c1sc(-c2ccc(C(F)(F)F)cc2)nc1C` (racemic) [Example 4, 3-(2-Chloro-4-{1-[4-methyl-2-(4-trifluoromethyl-phenyl)-thiazol-5-yl]-propoxy}-phenyl)-4H-[1,2,4]oxadiazol-5-one], the EC50 was found to be 12 nM. This counts as double-digit nanomolar. The molecule `CCC(Oc1ccc(-c2noc(=O)[nH]2)c(OC(F)F)c1)c1sc(-c2ccc(C(F)(F)F)cc2)nc1C` (racemic) [Example 37, 3-(2-Difluoromethoxy-4-{1-[4-methyl-2-(4-trifluoromethyl-phenyl)-thiazol-5-yl]-propoxy}-phenyl)-4H-1,2,4-oxadiazol-5-one] showed an EC50 of 223 nM. Molecule `Cc1nc(-c2ccc(C(F)(F)F)cc2)sc1C(OCc1ccc(-c2noc(=O)[nH]2)c(Cl)n1)C(F)(F)F` (racemic) [Example 27, 3-(2-Chloro-6-{2,2,2-trifluoro-1-[4-methyl-2-(4-trifluoromethyl-phenyl)-thiazol-5-yl]-ethoxymethyl}-pyridin-3-yl)-4H-[1,2,4]oxadiazol-5-one] displayed an EC50 of 1210 nM. Molecule `CCC(Oc1ccc(-c2noc(=O)[nH]2)c(F)c1)c1sc(-c2ccc(C(F)(F)F)cc2)nc1C` (racemic) [Example 35, 3-(2-Fluoro-4-{1-[4-methyl-2-(4-trifluoromethyl-phenyl)-thiazol-5-yl]-propoxy}-phenyl)-4H-1,2,4-oxadiazol-5-one] gave an EC50 of 269 nM. Compared with the last molecule, the EC50 is about 4.5-fold lower. On to `Cc1nc(-c2ccc(C(F)(F)F)cc2)sc1C(OCc1ccc(-c2noc(=O)[nH]2)cc1)C(F)(F)C1CC1` (racemic) [Example 32, 3-(4-{2-Cyclopropyl-2,2-difluoro-1-[4-methyl-2-(4-trifluoromethyl-phenyl)-thiazol-5-yl]-ethoxymethyl}-phenyl)-4H-[1,2,4]oxadiazol-5-one], for which the EC50 is greater than 33000 nM.

Consider `CCC(Oc1ccc(-c2noc(=O)[nH]2)c(OCC(F)(F)F)c1)c1sc(-c2ccc(C(F)(F)F)cc2)nc1C` (racemic) [Example 48, 3-[4-{1-[4-Methyl-2-(4-trifluoromethyl-phenyl)-thiazol-5-yl]-propoxy}-2-(2,2,2-trifluoro-ethoxy)-phenyl]-4H-1,2,4-oxadiazol-5-one], for which the EC50 is 87 nM. For `CC[C@@H](Oc1cc(OC)c(-c2noc(=O)[nH]2)cc1F)c1sc(-c2ccc(C(F)(F)F)cc2)nc1C` [(+)-40, (+)-3-(5-Fluoro-2-methoxy-4-{(R)-1-[4-methyl-2-(4-trifluoromethyl-phenyl)-thiazol-5-yl]-propoxy}-phenyl)-4H-1,2,4-oxadiazol-5-one], the EC50 was found to be 677 nM. Compared with the last molecule, the EC50 is about 7.8-fold higher. In the case of `Cc1nc(-c2ccc(C(F)(F)F)cc2)sc1C(OCc1ccc(-c2noc(=O)[nH]2)c(F)c1)C(F)(F)F` (racemic) [Example 22, 3-(2-Fluoro-4-{2,2,2-trifluoro-1-[4-methyl-2-(4-trifluoromethyl-phenyl)-thiazol-5-yl]-ethoxymethyl}-phenyl)-4H-[1,2,4]oxadiazol-5-one], the 50% effective concentration (EC50) amounted to 2640 nM. `Cc1nc(-c2ccc(C(F)(F)F)cc2)sc1C(OCc1ccc(-c2noc(=O)[nH]2)c2cccnc12)C(F)(F)F` (racemic) [Example 25, 3-(8-{2,2,2-Trifluoro-1-[4-methyl-2-(4-trifluoromethyl-phenyl)-thiazol-5-yl]-ethoxymethyl}-quinolin-5-yl)-4H-[1,2,4]oxadiazol-5-one] returned an EC50 of 544 nM.

On to `Cc1nc(-c2ccc(C(F)(F)F)cc2)sc1C(Cc1ccccn1)Oc1ccc(-c2noc(=O)[nH]2)c(Cl)c1` (racemic) [Example 10, 3-(2-Chloro-4-{1-[4-methyl-2-(4-trifluoromethyl-phenyl)-thiazol-5-yl]-2-pyridin-2-yl-ethoxy}-phenyl)-4H-[1,2,4]oxadiazol-5-one], for which the EC50 turned out to be 4380 nM. The figure for `CCCCC(Cc1ccc(-c2noc(=O)[nH]2)c(F)c1)c1sc(-c2ccc(C(F)(F)F)cc2)nc1C` (racemic) [Example 34, 3-(2-Fluoro-4-{2-[4-methyl-2-(4-trifluoromethyl-phenyl)-thiazol-5-yl]-hexyl}-phenyl)-4H-[1,2,4]oxadiazol-5-one] is 1070 nM; for `Cc1nc(-c2ccc(C(F)(F)F)cc2)sc1C(Oc1ccc(-c2noc(=O)[nH]2)c(Cl)c1)C(F)(F)F` (racemic) [Example 20, 3-(2-Chloro-4-{2,2,2-trifluoro-1-[4-methyl-2-(4-trifluoromethyl-phenyl)-thiazol-5-yl]-ethoxy}-phenyl)-4H-[1,2,4]oxadiazol-5-one] it is 307 nM; for `CCC(Oc1ccc(-c2noc(=O)[nH]2)c(OC)c1)c1sc(-c2ccc(C(F)(F)F)cc2)nc1CN1CCC(C(F)(F)F)CC1` (racemic) [Example 42, 3-(2-Methoxy-4-{1-[2-(4-trifluoromethyl-phenyl)-4-(4-trifluoromethyl-piperidin-1-ylmethyl)-thiazol-5-yl]-propoxy}-phenyl)-4H-1,2,4-oxadiazol-5-one] it is greater than 33000 nM. Consider `CCC(Oc1ccc(-c2noc(=O)[nH]2)c(C2CC2)c1)c1sc(-c2ccc(C(F)(F)F)cc2)nc1C` (racemic) [Example 16, 3-(2-Cyclopropyl-4-{1-[4-methyl-2-(4-trifluoromethyl-Phenyl)-thiazol-5-yl]-propoxy}-phenyl)-4H-[1,2,4]oxadiazol-5-one], for which the EC50 is 117 nM. `CC[C@@H](Oc1ccc(-c2noc(=O)[nH]2)c(OC(F)F)c1)c1sc(-c2ccc(C(F)(F)F)cc2)nc1CN1CCC(C(F)(F)F)CC1` [(+)-45, (+)-3-(2-Difluoromethoxy-4-{(R)-1-[2-(4-trifluoromethyl-phenyl)-4-(4-trifluoromethyl-piperidin-1-ylmethyl)-thiazol-5-yl]-propoxy}-phenyl)-4H-1,2,4-oxadiazol-5-one] displayed an EC50 of 1230 nM.
